# Results taken from the supplement of paper PMC10307832.
# Tests used:
# Assay in all cases: relative viability (nuclei count vs DMSO), 5 days (fraction); higher = more cells survive
# BGJ398 + Phenformin = compound: CCN1CCN(c2ccc(Nc3cc(N(C)C(=O)Nc4c(Cl)c(OC)cc(OC)c4Cl)ncn3)cc2)CC1 [BGJ398] + N=C(N)NC(=N)NCCc1ccccc1 [Phenformin] (partner 250 µM)
# Outline: (§1)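 Dosing by pin tool came one day after lung cancer cell lines were seeded in 1536-well plates, using either one drug or a fixed anchor-drug dose plus five library-drug doses (not always all listed) in √10 steps. After 5 days, nuclei were counted on 4× images. Relative viability is treated-well nuclei count divided by vehicle-well nuclei count, and values are medians of duplicate plates.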
# [1] = compound: C1=CC2=NC=CN=C2C=C1/C=C/3\C(=O)NC(=O)S3 + Cc1nc(Nc2ncc(C(=O)Nc3c(C)cccc3Cl)s2)cc(N2CCN(CCO)CC2)n1 [Dasatinib] (partner 0.075 µM)
# Outline: as §1
# BGJ398 + Foretinib = compound: CCN1CCN(c2ccc(Nc3cc(N(C)C(=O)Nc4c(Cl)c(OC)cc(OC)c4Cl)ncn3)cc2)CC1 [BGJ398] + COc1cc2c(Oc3ccc(NC(=O)C4(C(=O)Nc5ccc(F)cc5)CC4)cc3F)ccnc2cc1OCCCN1CCOCC1 [Foretinib] (partner 0.25 µM)
# Outline: as §1
# [2] = compound: C1=CC2=NC=CN=C2C=C1/C=C/3\C(=O)NC(=O)S3 + Cc1nc(NC(=O)N2CCC[C@H]2C(N)=O)sc1-c1ccnc(C(C)(C)C(F)(F)F)c1 [Alpelisib] (partner 2 µM)
# Outline: as §1
Cell Line,relative viability (BGJ398 + Phenformin; first compound 0.01 µM),relative viability (BGJ398 + Phenformin; first compound 0.03162 µM),relative viability (BGJ398 + Phenformin; first compound 0.1 µM),relative viability (BGJ398 + Phenformin; first compound 0.3162 µM),relative viability (BGJ398 + Phenformin; first compound 1 µM),relative viability ([1]; first compound 0.02 µM),relative viability ([1]; first compound 0.06325 µM),relative viability ([1]; first compound 0.2 µM),relative viability ([1]; first compound 0.6325 µM),relative viability ([1]; first compound 2 µM),relative viability (BGJ398 + Foretinib; first compound 0.01 µM),relative viability (BGJ398 + Foretinib; first compound 0.03162 µM),relative viability (BGJ398 + Foretinib; first compound 0.1 µM),relative viability (BGJ398 + Foretinib; first compound 0.3162 µM),relative viability (BGJ398 + Foretinib; first compound 1 µM),relative viability ([2]; first compound 0.02 µM),relative viability ([2]; first compound 0.06325 µM),relative viability ([2]; first compound 0.2 µM),relative viability ([2]; first compound 0.6325 µM),relative viability ([2]; first compound 2 µM)
NCI-H23,0.688,0.904,0.811,0.761,0.756,0.703,0.976,0.715,0.754,0.29,1.01,1.08,1.17,1.06,0.881,0.67,0.803,0.589,0.692,0.567
NCI-H322M,0.791,0.663,0.774,0.696,0.845,0.274,0.27,0.269,0.239,0.238,1.03,0.896,1.07,0.966,0.958,0.835,0.713,0.74,0.852,0.67
NCI-H358,0.29,0.296,0.395,0.317,0.462,0.151,0.202,0.167,0.14,0.105,0.61,0.725,0.682,0.718,0.951,0.953,0.955,0.87,0.791,0.547
NCI-H441,0.793,0.642,0.848,0.879,1.01,0.797,0.526,0.7,0.573,0.281,0.997,0.902,0.893,0.998,1.11,0.714,0.844,–,0.876,0.636
NCI-H460,0.491,0.565,0.622,0.472,0.465,0.53,0.782,0.477,0.362,0.0894,0.999,0.994,1.08,1.06,1.04,0.508,0.514,0.464,0.429,0.379
NCI-H520,0.532,0.481,0.379,0.189,0.242,0.181,0.229,0.217,0.161,0.151,0.777,0.7,0.316,0.25,0.236,0.866,0.948,0.822,0.877,1.01
NCI-H596,0.597,0.724,0.842,0.722,0.66,0.67,0.588,0.62,0.528,0.427,0.903,0.804,0.773,0.944,0.779,0.486,0.451,0.469,0.537,0.502
